Laboratory results reported in patent US8399451B2, “Heterocyclic compounds” (Bristol-Myers Squibb Company, priority 2009, dated 2013).

Tested on: circulating lymphocytes
Experiment: Blood Lymphocyte Reduction Assay (BLR) in Rodents
Assay type: in vivo
Conditions: Lewis rats, oral, vs vehicle (PEG300)
Method: Blood Lymphocyte Reduction Assay (BLR) in Rodents
Lewis rats were dosed orally with test article (as a solution or suspension in the vehicle) or vehicle alone (polyethylene glycol 300, “PEG300”). Blood was drawn at 4 hr by retro-orbital bleeding. Blood lymphocyte counts were determined on an ADVIA® 120 Hematology Analyzer (Siemens Healthcare Diagnostics). The results were measured as a reduction in the percentage of circulating lymphocytes as compared to the vehicle treated group at the 4 hr measurement.

Structure (SMILES) | % Reduction in Lymphocytes at 4 hr. (dose 3 mg/kg) [%] | further results
O=C(O)CCC1CCCN(CC(O)c2ccc(-c3noc(-c4onc(-c5ccccc5)c4C(F)(F)F)n3)cc2)C1 (stereo not shown) [Example 40, 3-(1-(2-Hydroxy-2-(4-(5-(3-phenyl-4-(trifluoromethyl)isoxazol-5-yl)-1,2,4-oxadiazol-3-yl)phenyl)ethyl)piperidin-3-yl)propanoic acid] |  | % Reduction in Lymphocytes at 4 hr. (dose 5.5 mg/kg): 80%
O=C(O)[C@H]1CCCN(C[C@@H](O)c2ccc(-c3noc(-c4onc(-c5ccccc5)c4C(F)(F)F)n3)cc2)C1 [Example 14, (S)-1-((S)-2-Hydroxy-2-(4-(5-(3-phenyl-4-(trifluoromethyl)isoxazol-5-yl)-1,2,4-oxadiazol-3-yl)phenyl)ethyl)piperidine-3-carboxylic acid] | 83 | 
O=C(O)C[C@H]1CCCN(C[C@@H](O)c2ccc(-c3noc(-c4onc(-c5ccccc5)c4C(F)(F)F)n3)cc2)C1 [Example 18, 2-((3R)-1-(2-Hydroxy-2-(4-(5-(3-phenyl-4-(trifluoromethyl)isoxazol-5-yl)-1,2,4-oxadiazol-3-yl)phenyl)ethyl)piperidin-3-yl)acetic acid] |  | % Reduction in Lymphocytes at 4 hr. (dose 1 mg/kg): 82%
CCCc1c(-c2nc(-c3ccc(C(O)CN4CCC[C@H](C(=O)O)C4)cc3)no2)noc1-c1ccccc1 (stereo partly drawn) [Example 4, (3S)-1-(2-Hydroxy-2-(4-(5-(5-phenyl-4-propylisoxazol-3-yl)-1,2,4-oxadiazol-3-yl)phenyl)ethyl)piperidine-3-carboxylic acid] | 71 | 
